# Where two headings read alike, the source gives them in different places.
# Tests used:
# Assay type in all cases: binding
# [1] = molecular target: various enzymes (Homo sapiens, UniProt P08631); details: compound 1 uM
# Protocol: (§1) Ambit profiling was conducted in accordance with the manufacturer's instructions.
# [2] = molecular target: various enzymes (Homo sapiens, UniProt Q8IYT8); details: compound 1 uM
# Protocol: as §1
# [3] = molecular target: various enzymes (Homo sapiens, UniProt P27448); details: compound 1 uM
# Protocol: as §1
# [4] = molecular target: various enzymes (Homo sapiens, UniProt Q15139); details: compound 1 uM
# Protocol: as §1
# [5] = molecular target: various enzymes (Homo sapiens, UniProt O96017); details: compound 1 uM
# Protocol: as §1
# [6] = molecular target: various enzymes (Homo sapiens, UniProt P42336, M1043I)
# Protocol: as §1
# [7] = molecular target: various enzymes (Homo sapiens, UniProt O75716); details: compound 1 uM
# Protocol: as §1
# [8] = molecular target: various enzymes (Homo sapiens, UniProt P16234); details: compound 1 uM
# Protocol: as §1
# [9] = molecular target: various enzymes (Homo sapiens, UniProt Q13233); details: compound 1 uM
# Protocol: as §1
# [10] = molecular target: various enzymes (Homo sapiens, UniProt P00519, E255K)
# Protocol: as §1
# [11] = molecular target: various enzymes (Homo sapiens, UniProt Q9Y243); details: compound 1 uM
# Protocol: as §1
# [12] = molecular target: various enzymes (Homo sapiens, UniProt Q8N568); details: compound 1 uM
# Sequence of various enzymes (Homo sapiens, UniProt Q8N568) (Q8N568 whole entry): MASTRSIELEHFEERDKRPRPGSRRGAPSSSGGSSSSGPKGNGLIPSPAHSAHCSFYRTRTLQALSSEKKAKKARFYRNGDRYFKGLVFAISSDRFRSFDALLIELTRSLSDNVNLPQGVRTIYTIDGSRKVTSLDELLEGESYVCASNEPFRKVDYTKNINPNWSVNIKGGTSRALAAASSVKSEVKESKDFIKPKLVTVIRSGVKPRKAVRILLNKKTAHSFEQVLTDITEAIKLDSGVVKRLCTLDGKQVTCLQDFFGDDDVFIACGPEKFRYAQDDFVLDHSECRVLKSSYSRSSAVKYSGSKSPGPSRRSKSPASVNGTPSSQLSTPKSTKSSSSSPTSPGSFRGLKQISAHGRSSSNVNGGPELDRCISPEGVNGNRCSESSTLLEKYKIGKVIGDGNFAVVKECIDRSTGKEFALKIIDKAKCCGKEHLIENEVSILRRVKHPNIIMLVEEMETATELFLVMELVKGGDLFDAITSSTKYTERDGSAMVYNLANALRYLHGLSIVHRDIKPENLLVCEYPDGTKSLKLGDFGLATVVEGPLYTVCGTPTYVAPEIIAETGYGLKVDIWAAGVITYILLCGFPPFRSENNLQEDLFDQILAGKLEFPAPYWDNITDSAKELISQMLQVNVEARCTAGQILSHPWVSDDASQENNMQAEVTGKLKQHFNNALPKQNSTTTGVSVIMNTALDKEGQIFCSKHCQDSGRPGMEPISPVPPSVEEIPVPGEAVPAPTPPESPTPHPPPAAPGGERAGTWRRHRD
# Protocol: as §1
# [13] = molecular target: various enzymes (Homo sapiens, UniProt P00519, Y253F)
# Protocol: as §1
# [14] = molecular target: various enzymes (Homo sapiens, UniProt Q96PN8); details: compound 1 uM
# Protocol: as §1
# [15] = molecular target: various enzymes (Homo sapiens, UniProt O14578); details: compound 1 uM
# Protocol: as §1
# [16] = molecular target: various enzymes (Homo sapiens, UniProt P04629); details: compound 1 uM
# Protocol: as §1
# [17] = molecular target: various enzymes (Homo sapiens, UniProt P46734); details: compound 1 uM
# Protocol: as §1
# [18] = molecular target: various enzymes (Homo sapiens, UniProt Q15759); details: compound 1 uM
# Protocol: as §1
# [19] = molecular target: various enzymes (Homo sapiens, UniProt Q13464); details: compound 1 uM
# Protocol: as §1
# [20] = molecular target: various enzymes (Homo sapiens, UniProt P54760); details: compound 1 uM
# Protocol: as §1
# [21] = molecular target: various enzymes (Homo sapiens, UniProt Q14012); details: compound 1 uM
# Protocol: as §1
# [22] = molecular target: various enzymes (Homo sapiens, UniProt P51957); details: compound 1 uM
# Protocol: as §1
# [23] = molecular target: various enzymes (Homo sapiens, UniProt Q96D53); details: compound 1 uM
# Sequence of various enzymes (Homo sapiens, UniProt Q96D53) (Q96D53 whole entry): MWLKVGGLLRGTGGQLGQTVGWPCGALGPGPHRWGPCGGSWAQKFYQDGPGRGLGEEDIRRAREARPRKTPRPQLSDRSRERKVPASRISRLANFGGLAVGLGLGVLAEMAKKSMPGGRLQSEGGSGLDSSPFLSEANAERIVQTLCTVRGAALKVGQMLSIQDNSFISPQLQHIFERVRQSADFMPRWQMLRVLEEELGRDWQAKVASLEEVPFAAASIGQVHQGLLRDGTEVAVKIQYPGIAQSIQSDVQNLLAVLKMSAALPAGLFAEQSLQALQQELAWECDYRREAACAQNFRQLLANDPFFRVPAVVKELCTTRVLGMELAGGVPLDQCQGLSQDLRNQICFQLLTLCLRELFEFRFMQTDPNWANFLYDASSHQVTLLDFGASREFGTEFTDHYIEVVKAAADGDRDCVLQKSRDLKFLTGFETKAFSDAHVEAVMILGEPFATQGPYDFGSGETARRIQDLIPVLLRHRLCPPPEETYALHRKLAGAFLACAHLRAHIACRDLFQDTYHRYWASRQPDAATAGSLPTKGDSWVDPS
# Protocol: as §1
# [24] = molecular target: various enzymes (Homo sapiens, UniProt P42336, I800L)
# Protocol: as §1
# [25] = molecular target: various enzymes (Homo sapiens, UniProt Q8TF76); details: compound 1 uM
# Sequence of various enzymes (Homo sapiens, UniProt Q8TF76) (Q8TF76 whole entry): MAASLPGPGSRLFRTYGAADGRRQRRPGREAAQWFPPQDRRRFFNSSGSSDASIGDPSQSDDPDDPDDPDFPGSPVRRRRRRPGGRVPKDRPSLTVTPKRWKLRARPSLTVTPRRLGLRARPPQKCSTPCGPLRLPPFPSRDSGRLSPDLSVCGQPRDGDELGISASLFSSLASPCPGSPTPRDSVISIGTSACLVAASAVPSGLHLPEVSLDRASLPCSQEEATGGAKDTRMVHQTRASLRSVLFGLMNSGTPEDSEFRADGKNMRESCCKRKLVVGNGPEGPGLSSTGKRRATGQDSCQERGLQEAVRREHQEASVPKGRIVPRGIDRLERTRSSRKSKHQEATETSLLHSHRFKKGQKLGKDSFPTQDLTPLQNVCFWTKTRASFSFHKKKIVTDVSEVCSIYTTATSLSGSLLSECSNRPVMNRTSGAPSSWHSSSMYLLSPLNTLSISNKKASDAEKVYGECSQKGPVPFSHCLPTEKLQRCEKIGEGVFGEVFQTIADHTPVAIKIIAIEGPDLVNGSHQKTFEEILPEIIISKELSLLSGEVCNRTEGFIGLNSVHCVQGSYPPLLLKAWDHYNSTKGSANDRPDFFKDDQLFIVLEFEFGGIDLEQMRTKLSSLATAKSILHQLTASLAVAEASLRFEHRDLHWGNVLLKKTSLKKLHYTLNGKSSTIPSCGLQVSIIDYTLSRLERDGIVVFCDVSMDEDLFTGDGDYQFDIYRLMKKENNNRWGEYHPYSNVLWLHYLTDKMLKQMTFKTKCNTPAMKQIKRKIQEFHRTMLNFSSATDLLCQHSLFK
# Protocol: as §1
# [26] = molecular target: T1, various enzymes (Homo sapiens, UniProt Q9NWZ3); details: compound 1 uM
# T1 sequence (Q9NWZ3 1-460): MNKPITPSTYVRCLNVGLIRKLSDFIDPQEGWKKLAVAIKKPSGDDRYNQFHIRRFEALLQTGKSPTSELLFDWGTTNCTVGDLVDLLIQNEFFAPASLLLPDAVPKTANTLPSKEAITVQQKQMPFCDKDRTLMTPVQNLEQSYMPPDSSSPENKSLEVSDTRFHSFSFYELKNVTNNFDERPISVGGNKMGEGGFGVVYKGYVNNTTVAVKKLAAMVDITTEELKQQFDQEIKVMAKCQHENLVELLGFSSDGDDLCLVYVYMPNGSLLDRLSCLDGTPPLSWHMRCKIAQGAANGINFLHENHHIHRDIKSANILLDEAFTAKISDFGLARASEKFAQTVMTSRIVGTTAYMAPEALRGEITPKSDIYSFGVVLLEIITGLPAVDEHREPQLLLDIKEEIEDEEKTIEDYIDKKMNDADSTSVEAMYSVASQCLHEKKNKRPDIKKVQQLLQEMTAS
# Protocol: as §1
# [27] = molecular target: various enzymes (Homo sapiens, UniProt P57078); details: compound 1 uM
# Protocol: as §1
# [28] = molecular target: various enzymes (Homo sapiens, UniProt Q04912); details: compound 1 uM
# Protocol: as §1
# [29] = molecular target: various enzymes (Homo sapiens, UniProt Q8NG66); details: compound 1 uM
# Protocol: as §1
# [30] = molecular target: various enzymes (Homo sapiens, UniProt Q8WU08); details: compound 1 uM
# Protocol: as §1
# [31] = molecular target: various enzymes (Homo sapiens, UniProt P45984); details: compound 1 uM
# Protocol: as §1
# [32] = molecular target: various enzymes (Homo sapiens, UniProt Q9HBY8); details: compound 1 uM
# Sequence of various enzymes (Homo sapiens, UniProt Q9HBY8) (Q9HBY8 whole entry): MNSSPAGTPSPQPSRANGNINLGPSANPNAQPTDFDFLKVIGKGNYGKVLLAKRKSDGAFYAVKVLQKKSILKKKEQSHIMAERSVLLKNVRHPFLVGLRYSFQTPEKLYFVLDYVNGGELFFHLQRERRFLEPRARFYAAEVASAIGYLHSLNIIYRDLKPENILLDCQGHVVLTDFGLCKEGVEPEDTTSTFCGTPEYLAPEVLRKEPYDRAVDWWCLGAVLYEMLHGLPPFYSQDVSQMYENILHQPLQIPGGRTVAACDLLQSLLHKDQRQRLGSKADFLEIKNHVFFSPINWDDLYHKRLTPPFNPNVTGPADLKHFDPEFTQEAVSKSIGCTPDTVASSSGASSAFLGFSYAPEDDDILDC
# Protocol: as §1
# [33] = molecular target: various enzymes (Homo sapiens, UniProt O14920); details: compound 1 uM
# Protocol: as §1
# [34] = molecular target: various enzymes (Homo sapiens, UniProt Q07002); details: compound 1 uM
# Protocol: as §1
# [35] = molecular target: various enzymes (Homo sapiens, UniProt P08581, Y1235D)
# Protocol: as §1
# [36] = molecular target: various enzymes (Homo sapiens, UniProt P53355); details: compound 1 uM
# Sequence of various enzymes (Homo sapiens, UniProt P53355) (P53355 whole entry): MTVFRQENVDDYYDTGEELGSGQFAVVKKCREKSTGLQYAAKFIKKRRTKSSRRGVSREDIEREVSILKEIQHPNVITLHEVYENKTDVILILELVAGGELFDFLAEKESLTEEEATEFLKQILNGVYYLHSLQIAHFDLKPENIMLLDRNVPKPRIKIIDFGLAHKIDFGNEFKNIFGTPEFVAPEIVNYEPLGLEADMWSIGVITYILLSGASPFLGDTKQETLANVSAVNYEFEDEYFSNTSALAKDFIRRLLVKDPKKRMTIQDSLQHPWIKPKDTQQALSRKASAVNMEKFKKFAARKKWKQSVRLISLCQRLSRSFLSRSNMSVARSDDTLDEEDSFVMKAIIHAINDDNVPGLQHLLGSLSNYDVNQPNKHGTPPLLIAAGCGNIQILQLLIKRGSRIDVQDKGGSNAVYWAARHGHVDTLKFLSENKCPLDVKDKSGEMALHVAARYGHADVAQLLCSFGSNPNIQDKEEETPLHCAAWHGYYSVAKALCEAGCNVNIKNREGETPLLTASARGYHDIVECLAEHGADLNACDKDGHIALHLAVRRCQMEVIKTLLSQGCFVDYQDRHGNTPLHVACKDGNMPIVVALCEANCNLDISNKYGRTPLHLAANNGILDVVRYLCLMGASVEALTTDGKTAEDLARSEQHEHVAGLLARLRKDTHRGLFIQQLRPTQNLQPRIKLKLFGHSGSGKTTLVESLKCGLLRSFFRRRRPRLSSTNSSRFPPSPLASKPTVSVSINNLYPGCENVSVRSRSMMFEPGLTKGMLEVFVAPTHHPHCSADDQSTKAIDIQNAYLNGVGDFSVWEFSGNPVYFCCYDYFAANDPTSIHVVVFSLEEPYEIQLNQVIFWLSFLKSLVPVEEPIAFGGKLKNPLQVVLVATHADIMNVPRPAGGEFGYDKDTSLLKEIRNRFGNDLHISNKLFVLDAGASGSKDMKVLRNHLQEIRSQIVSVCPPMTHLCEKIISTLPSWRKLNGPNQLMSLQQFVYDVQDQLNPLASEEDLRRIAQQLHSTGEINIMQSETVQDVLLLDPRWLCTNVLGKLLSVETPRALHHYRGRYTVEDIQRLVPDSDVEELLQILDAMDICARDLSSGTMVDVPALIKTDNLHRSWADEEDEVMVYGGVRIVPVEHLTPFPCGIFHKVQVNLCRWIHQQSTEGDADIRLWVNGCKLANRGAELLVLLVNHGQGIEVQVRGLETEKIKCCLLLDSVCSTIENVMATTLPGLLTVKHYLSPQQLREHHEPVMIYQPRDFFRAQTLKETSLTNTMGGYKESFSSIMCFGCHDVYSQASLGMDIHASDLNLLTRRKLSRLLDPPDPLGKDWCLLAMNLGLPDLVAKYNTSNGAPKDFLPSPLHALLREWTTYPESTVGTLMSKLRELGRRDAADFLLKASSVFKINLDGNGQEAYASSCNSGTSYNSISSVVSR
# Protocol: as §1
# [37] = molecular target: various enzymes (Homo sapiens, UniProt Q16620); details: compound 1 uM
# Protocol: as §1
# [38] = molecular target: various enzymes (Homo sapiens, UniProt Q92918); details: compound 1 uM
# Protocol: as §1
# Sequence of various enzymes (Homo sapiens, UniProt Q8IYT8) (Q8IYT8 whole entry): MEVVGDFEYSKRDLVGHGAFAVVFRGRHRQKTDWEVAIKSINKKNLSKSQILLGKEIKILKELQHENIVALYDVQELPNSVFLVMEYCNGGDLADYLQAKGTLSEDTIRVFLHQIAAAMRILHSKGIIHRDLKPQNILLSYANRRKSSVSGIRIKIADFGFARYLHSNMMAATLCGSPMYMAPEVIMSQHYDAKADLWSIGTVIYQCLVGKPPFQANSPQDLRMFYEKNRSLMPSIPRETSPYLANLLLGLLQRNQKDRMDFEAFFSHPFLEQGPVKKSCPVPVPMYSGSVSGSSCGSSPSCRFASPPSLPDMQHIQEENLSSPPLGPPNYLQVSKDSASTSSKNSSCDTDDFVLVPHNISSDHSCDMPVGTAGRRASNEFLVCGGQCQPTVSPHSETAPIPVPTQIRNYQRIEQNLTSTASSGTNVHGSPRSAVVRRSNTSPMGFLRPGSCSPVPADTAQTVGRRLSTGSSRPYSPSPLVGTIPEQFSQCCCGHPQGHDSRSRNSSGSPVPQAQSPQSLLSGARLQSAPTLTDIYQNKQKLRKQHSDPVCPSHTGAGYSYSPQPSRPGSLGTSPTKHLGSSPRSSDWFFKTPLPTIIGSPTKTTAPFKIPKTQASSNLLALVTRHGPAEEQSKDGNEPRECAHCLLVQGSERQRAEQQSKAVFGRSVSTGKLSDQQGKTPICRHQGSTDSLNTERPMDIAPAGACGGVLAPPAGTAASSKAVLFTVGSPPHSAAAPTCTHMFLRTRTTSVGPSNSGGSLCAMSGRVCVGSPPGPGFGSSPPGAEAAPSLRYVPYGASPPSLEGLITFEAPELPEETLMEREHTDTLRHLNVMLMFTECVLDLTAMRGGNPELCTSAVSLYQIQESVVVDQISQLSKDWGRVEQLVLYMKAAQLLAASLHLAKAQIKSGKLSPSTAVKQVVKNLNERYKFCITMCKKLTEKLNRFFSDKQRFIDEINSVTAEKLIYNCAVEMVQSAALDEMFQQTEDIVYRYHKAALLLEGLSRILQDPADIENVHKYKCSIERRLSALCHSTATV
SMILES,Ambit profiling: HCK [1],Ambit profiling: ULK2 [2],Ambit profiling: MARK3 [3],Ambit profiling: PRKD1 [4],Ambit profiling: CHEK2 [5],Ambit profiling: STK16 [7],Ambit profiling: PDGFRA [8],Ambit profiling: MAP3K1 [9],Ambit profiling: AKT3 [11],Ambit profiling: DCAMKL2 [12],Ambit profiling: TSSK3 [14],Ambit profiling: CIT [15],Ambit profiling: MEK3 [17],Ambit profiling: p38-beta [18],Ambit profiling: ROCK1 [19],Ambit profiling: EPHB4 [20],Ambit profiling: CAMK1 [21],Ambit profiling: NEK4 [22],Ambit profiling: ADCK4 [23],Ambit profiling: HASPIN [25],further results
"CC(C)N1Cc2nn(C)cc2-c2cnc3[nH]cc(c3c2)-c2cn(nc2C(F)(F)F)CCCC1=O [Compound 45, (Z)-5-isopropyl-31-methyl-13-(trifluoromethyl)-11H,21H,31H-5-aza-2(3,5)-pyrrolo[2,3-b]pyridina-1(4,1),3(4,3)-dipyrazolacyclononaphan-6-one]",24,56,32,36,82,1.9,11,95,100,100,90,17,0,100,95,76,91,93,3.9,2.3,Ambit profiling: PIK3CA(M1043I) ([6]; compound 1 uM): 81; Ambit profiling: ABL1(E255K)-phosphorylated ([10]; compound 1 uM): 7.7; Ambit profiling: ABL1(V253F)-phosphorylated ([13]; compound 1 uM): 76; Ambit profiling: TRKA [16]: 0; Ambit profiling: PIK3CA(I800L) ([24]; compound 1 uM): 87; Ambit profiling: IRAK4 [26]: 39; Ambit profiling: RIPK4 [27]: 100; Ambit profiling: MST1R [28]: 70; Ambit profiling: NEK11 [29]: 100; Ambit profiling: YANK1 [30]: 100; Ambit profiling: JNK2 [31]: 21; Ambit profiling: SGK2 [32]: 23; Ambit profiling: IKK-beta [33]: 100; Ambit profiling: PCTK3 [34]: 30; Ambit profiling: MET(Y1235D) ([35]; compound 1 uM): 4.8; Ambit profiling: DAPK1 [36]: 92; Ambit profiling: TRKB [37]: 0.25; Ambit profiling: HPK1 [38]: 5.9
"COc1c2c(nn1C)CN(C(C)C)C(=O)CCCn1cc(c(C(F)(F)F)n1)-c1c[nH]c3ncc-2cc13 [Compound 50, (Z)-5-isopropyl-35-methoxy-31-methyl-13-(trifluoromethyl)-11H,21H,31H-5-aza-2(3,5)-pyrrolo[2,3-b]pyridina-1(4,1),3(4,3)-dipyrazolacyclononaphan-6-one]",8.1,96,43,33,80,12,5.6,72,100,90,100,31,7.1,83,79,40,53,100,7.7,42,Ambit profiling: PIK3CA(M1043I) [6]: 86; Ambit profiling: ABL1(E255K)-phosphorylated [10]: 2; Ambit profiling: ABL1(Y253F)-phosphorylated [13]: 10; Ambit profiling: TBKA [16]: 0; Ambit profiling: PIK3CA(I800L) [24]: 86; Ambit profiling: IRAK4 [26]: 20; Ambit profiling: RIPK4 [27]: 85; Ambit profiling: MST1R [28]: 42; Ambit profiling: NEK11 [29]: 94; Ambit profiling: YANK1 [30]: 24; Ambit profiling: JNK2 [31]: 7.5; Ambit profiling: SGK2 [32]: 59; Ambit profiling: IKK-beta [33]: 87; Ambit profiling: PCTK3 [34]: 69; Ambit profiling: MET(Y1235D) [35]: 1.4; Ambit profiling: DAPK1 [36]: 65; Ambit profiling: TRKB [37]: 0; Ambit profiling: HPK1 [38]: 0
